Where a SMILES comes first, the peptide text is derived from it.
Test system: ZIKV
Assay: Post-infection treatment of ZIKV-infected Vero cells, FFU assay of supernatants
Type: cell-based, Zika virus
Conditions: 40 µM peptide added after infection, FFU of supernatant
Method: Next, we determined whether the observed Yodha peptide-induced decrease in viral titers was due to blocked viral entry. We reasoned that if the peptide directly kills or disrupts the envelope structure of ZIKV, this would prevent virus entry. To test this, we designed an experiment to measure virus entry, by allowing ZIKV to bind cells at 4 °C for 1 h followed by shifting the cells to 37 °C to permit virus entry (Fig. 2A). It has been shown that DENV2 entry occurs within 25 min by early endosome trafficking. Briefly, we exposed ZIKV to Yodha peptide and then allowed the virus to infect Vero cells for 30 min. We then measured viral RNA within the Vero cells by quantitative Real Time-PCR (qRT-PCR) (Fig. 2B). […] Next, we visualized ZIKV entry or lack thereof by immunofluorescence using antibodies against pan flavivirus E protein. […] We collected culture supernatants at 3, 24, 48, and 72 h after ZIKV infection to quantitate ZIKV by FFU assay (Fig. 2E). ZIKV was not detected at 3 h post-infection in both OVA- or Yodha-treated cells. […]
Figure 2 Yodha peptide inhibits ZIKV entry into cells. […] (B) ZIKV was treated with 200 µM of Yodha or control OVA peptide for 30 min and then used to infect Vero cells at a MOI of 0.5 and expression of ZIKV RNA was determined by quantitative RT-PCR (qRT-PCR). […] Error bars indicate the SEM of four technical replicates statistical significance was assessed by a 2-way ANOVA.

In the case of CC[C@H](C)[C@H](NC(=O)[C@@H](NC(=O)CNC(=O)[C@H](CC(C)C)NC(=O)[C@H](Cc1ccccc1)NC(=O)[C@H](Cc1ccccc1)NC(=O)[C@H](CC(C)C)NC(=O)[C@H](CC(C)C)NC(=O)[C@H](CC(C)C)NC(=O)[C@H](CCSC)NC(=O)[C@@H](N)CO)[C@@H](C)O)C(=O)N[C@@H](CO)C(=O)N[C@@H](CC(C)C)C(=O)N[C@@H](CO)C(=O)N[C@@H](CC(C)C)C(=O)N[C@@H](CS)C(=O)N[C@@H](CCC(N)=O)C(=O)N[C@@H](CC(=O)O)C(=O)N[C@@H](CC(=O)O)C(=O)N[C@@H](CCC(N)=O)C(=O)N[C@@H](CCC(=O)O)C(=O)N[C@@H](CCCNC(=N)N)C(=O)N[C@@H](CS)C(=O)O [Yodha] (H-SMLLLFFLGTISLSLCQDDQERC-OH; N-terminus and C-terminus assumed), the “reduction in ZIKV production” value (48 h post-infection) is reported as 60–70% and the “reduction in ZIKV production” value (72 h post-infection) is reported as 60–70%.
